Measurements taken from patent publication US20240415804A1, “METHOD OF TREATING PANCREATIC CANCER” (University of South Florida, priority 2022, published 2024).

How the values were obtained:
SHIP-1 = SHIP-1 gene and protein expression in tumors of KC-HPC mice; assay type: in vivo, mouse; conditions: API 25 mg/kg IP three times per week for 17 days, vs vehicle
Description: To build on these findings, the inventors then used a novel pancreatic cancer cell line, UN-KC-6141, that resembles human PC due to its expression of a mutated Kras and generated mice harboring these tumor cells, called KC-HPC mice. Such mice were treated with API at a dose of 25 mg/kg (IP) three times per week for 17 days. The inventors examined if API also targets miR-155 and regulates SHIP-1 in the tumors from KC-HPC mouse model.
All female C57BL/6 mice (6-8 weeks of age) described in this study were purchased from Envigo (Indianapolis, IN, USA) and were acclimatize for one week in a pathogen-free animal facility (University of South Florida (USF) vivarium) before injections with PC cells. To generate heterotopic pancreatic cancer (HPC) models, mice were subcutaneously injected with 1.5×10^5 murine Panc02 (HPC mice) or 5×10^6 murine UN-KC-6141 cells (KC-HPC mice), in sterile 1× phosphate buffer saline (PBS), in the lower ventral abdomen, while control (CTRL) mice received sterile 1×PBS. […]
Isolation of total RNA from digested pancreatic tumors and BM cells was performed using a RNeasy Mini Kit (Qiagen), according to the manufacturer's instructions. RT-PCR of quantified and normalized total RNA was performed using a High-Capacity cDNA RT Kit with an RNase Inhibitor (Applied Biosystems), according to the manufacturer's instructions. […]

UN-KC-6141 cells = test: MTT cell viability assay, UN-KC-6141; assay type: cell-based, mouse; conditions: API 40 μM, 24 h, vs DMSO vehicle
Description: The methyl thiazol tetrazolium (MTT) assay was performed as described previously^58. Briefly, MiaPaCa-2, Panc02 and UN-KC-6141 cells were seeded in 96-well plates at a density of 3000 cells/well and allowed to attach overnight. PC cells were then treated with API (40 μM) or DMSO (1%) as vehicle control for 24 h at 37° C. in 5% CO2 incubator. After 24 h, media was replaced with 20 μL of MTT (1 mg/mL) (Sigma-Aldrich) and incubated for 3 h at 37° C. in 5% CO2. MTT was replaced with DMSO, and absorbance was read at 570 nm.
MiaPaCa-2, Panc02 and UN-KC-6141 cells (2×10^5) were grown in 2 mL of growth medium in a 6-well tissue culture plate for 18-24 h until 60-80% confluency. The following solutions were prepared: Solution A) For each transfection, diluted 1 μL of miRNA-155 inhibitors (1 μM) (Table 2) or scrambled negative control miRNA (1 μM) (Qiagen, Germantown, MD, USA) into 50 μL Opti-MEM Transfection Medium (Invitrogen, Waltham, MA, USA). Solution B) For each transfection, diluted 3 μL of Hi-Perfect Transfection Reagent into 50 μL Opti-MEM Transfection Medium. Solution A was added directly to Solution B, mixed gently and the mixture incubated for 10-15 min at room temperature. […]

Panc02 cells = test: Apoptosis by flow cytometry (Annexin V and PI), Panc02; assay type: cell-based, mouse; conditions: API 10, 20, 30, 40, 50 μM, 24 h
Description: Panc02 and UN-KC-6141 cells were seeded in 6-well plates allowed to grow to 50-60% confluency. Cells were then treated with API at a dose-dependent concentration (10, 20, 30, 40, 50 μM) or DMSO (1%) as vehicle control and incubated for 24 h at 37° C. in a humidified atmosphere of 5% CO2. Cells were collected and stained with a FITC Annexin V Apoptosis Detection Kit I (BD Bioscience, San Jose, CA, USA) according to the manufacturer's instructions. Acquisition of samples was performed using a flow cytometer BD LSRII (BD Biosciences Immunocytometry Systems, San Jose, CA, USA). FlowJo v10.8 software (TreeStar Inc., Ashland, OR, USA) was used for data analysis.

O=c1cc(-c2ccc(O)cc2)oc2cc(O)cc(O)c12 [API, 40,5,7-Trihydroxyflavone, 5,7-Dihydroxy-2-(4-hydroxyphenyl)-4-benzopyrone]
SHIP-1 gene expression in tumor (SHIP-1): significantly increased
SHIP-1 protein expression in tumor (SHIP-1): significantly increased
cell viability (MTT) (UN-KC-6141 cells): significantly inhibited
apoptosis (Annexin V and PI) (Panc02 cells): induces apoptosis
